Laboratory results published in US10189826B2, “Heterocyclic compounds and methods of use” (Medivation Technologies LLC, priority 2015, dated 2019).

Assays:
Format in all cases: cell-based
[1] = tested on: SREBP2 cleavage in HEPG2 cells; assay: SREBP2 cleavage in HEPG2 cells (Western blot normalized to actin); details: 20 μM, 1 day, DMEM without FBS
Method: Average SREBP2 cleavage in HEPG2 cells was measured in the presence of compounds disclosed in Table 1. HepG2 cells were seeded at 500,000 cells per well in 6-well plates in DMEM supplemented with 10% FBS. After 2 days, cells were treated with compounds (20 μM) for 1 day in DMEM without FBS. Western blots were normalized with respect to actin.

[2] = tested on: HepG2 cells; assay: Cell viability in HepG2 cells (MTS); details: 20 μM, 3 days, DMEM without FBS
Method: For viability measurements, HepG2 cells were seeded at 5,000 cells per well in 96-well plates in DMEM supplemented with 10% FBS. After 1 day in culture, cells were treated with compounds (20 μM) for 3 days in DMEM without FBS. Viability was measured by MTS. Treatment with compounds was carried out in medium without FBS, and viability was measured by MTS.

[3] = tested on: HepG2_LSSprom cells; assay: Cytotoxicity assay (LDH release) in HepG2_LSSprom cells; details: 5 μM, LDH release relative to lysis control
Method in brief: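 HepG2_LSSprom cells exposed to compound at 0.625–10 μM in serum-free medium for 6 h or 24 h. Medium LDH measured colorimetrically at 490 nm; release expressed as % of lysis control after vehicle subtraction, negatives set to 0; five independent experiments, triplicate wells, mean±SEM.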

[4] = tested on: SREBP-2 transcriptional activity (SREBP2 cleavage) in HepG2_LSSprom cells; assay: Luciferase reporter driven by a SREBP-2 specific promoter in HepG2_LSSprom cells; details: 5 μM, HepG2_LSSprom cells, medium without FBS
Method in brief: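 HepG2_LSSprom cells dosed at 0.625-10 μM in serum-free medium for 6 h (or 24 h), then luciferase luminescence read. Signal normalized to vehicle (100%); IC50 by four-parameter nonlinear fit; five independent experiments, triplicate wells.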

Row | SMILES | Average SREBP2 cleavage (% Inhibition, n = 3) [1] [% Inhibition] | Average Viability (% Inhibition, n = 3) [2] [% Inhibition] | Cytotoxicity (5 μM) % [3] [%] | SREBP2 Cleavage (5 μM) (% Inh) [4] [% Inh]
1 | CCCc1cc(-c2nc(-c3ccc(C(=O)N(C)C)cc3)cs2)ccn1 [Compound 2, N,N-dimethyl-4-[2-(2-propylpyridin-4-yl)-1,3-thiazol-4-yl]benzamide] | 73.85 | 30.73 |  | 
2 | CCCc1cc(-c2nc(-c3ccc(C(N)=O)cc3)cs2)ccn1 [Compound 3, 4-[2-(2-propylpyridin-4-yl)-1,3-thiazol-4-yl]benzamide] | 12.18 | 19.52 |  | 
3 | CN(C)C(=O)c1ccc(-c2csc(-c3cccc4[nH]ccc34)n2)c(Cl)c1 [Compound 6, 3-chloro-4-[2-(1H-indol-4-yl)-1,3-thiazol-4-yl]-N,N-dimethylbenzamide] |  |  | 0 | 41
4 | CN(C)C(=O)c1ccc(-c2csc(-c3ccnc(N4CCCCC4)c3)n2)c(Cl)c1 [Compound 9, 3-chloro-N,N-dimethyl-4-{2-[2-(piperidin-1-yl)pyridin-4-yl]-1,3-thiazol-4-yl}benzamide] |  |  | 1 | 52
